Bounds are passed on as bounds.

One assay deals with HIV Protease (Human immunodeficiency virus type 1 group M subtype B, UniProt P04585). Put plainly: Inhibition of HIV Protease. It counts as biochemical. The note with it: Table 1, Inhibition of HIV Protease by compounds of formula drawing 46.
What is called Ki is a dissociation constant, usually derived from enzyme kinetics or from competition with a known ligand. A high value points to lower affinity. Regarding `C=CCC1OC(c2ccccc2)CC1C(NS(=O)(=O)c1ccc(F)cc1)C(=O)O` (stereo not shown) [compound 18], the inhibitory constant (Ki) is more than 1 µM.
As to `Cc1ccc(S(=O)(=O)NC(C(=O)O)C2CC(c3ccccc3)OC2CC(O)c2ccccc2)cc1` (stereo not shown) [compound 21], the inhibition constant (Ki) came to 0.004 µM.
On the same count and under the same terms, the same measure for `Cc1ccc(S(=O)(=O)NC(C(=O)O)C2CC(c3ccccc3)OC2CC(O)CO)cc1` (stereo not shown) [compound 22]: 0.027 µM; for `C=CCC1OC(c2ccccc2)CC1C(NS(=O)(=O)c1ccc(C)cc1)C(=O)O` (stereo not shown) [compound 25]: more than 1 µM; for `Cc1ccc(S(=O)(=O)NC(C(=O)O)C2CC(c3ccc4ccccc4c3)OC2CC(O)c2ccccc2)cc1` (stereo not shown) [compound 26]: 0.15 µM.
The same measure, in the same setting: the same measure for `CC=CC1OC(c2ccccc2)CC1C(NS(=O)(=O)c1ccc(C)cc1)C(=O)O` (stereo not shown) [compound 33]: more than 1 µM.

The assay is the same for the next values; noted with them: Table 2, Inhibition of HIV Protease.
With `COc1ccc(S(=O)(=O)NC(C(=O)O)C2CC3Cc4cc(OC)ccc4C2O3)cc1` (stereo not shown) [compound 2], the Ki was more than 1 µM.

These data come from patent publication US9359317B2, “Small molecule inhibitors of HIV proteases” (Purdue Research Foundation, priority 2008, dated 2016).
